Legend:
[1] = test system: myocilin mRNA; experiment: Myocilin mRNA expression in monkey TM cells (qRT-PCR); assay type: cell-based, rhesus monkeys (Macaca mulatta); conditions: for EC50: Macaca mulatta, cultured monkey TM cells, weighted average, two dose-response studies each using two TM cell strains, read-out: EC50 ± SE, expression of myocilin mRNA
Protocol: For each study, up to nine TM cell strains, each derived from an individual monkey, were tested separately. Cells were thawed and seeded into 12- or 48-well clusters (Falcon, BD Biosciences; 150,000 and 30,000 cells/well, respectively) in proliferation medium. When cells were 75% to 90% confluent proliferation medium was replaced by a 5:4 mixture of HESFM and Dulbecco's MEM, respectively, supplemented with 10% FBS, with added taurine, ascorbic acid phosphate, glutathione, and antibiotic as for proliferation medium (above), and with 2.72 g/L glucose and 1.72 g/L fructose. At confluence, the medium was changed to Dulbecco's MEM, containing 10% FBS^40, ascorbic acid phosphate, antibiotic, 2.72 g/L glucose and 1.72 g/L fructose. Cells were maintained as stable, confluent monolayers in this latter medium for 4 to 7 days before experimental treatments commenced.
After quantification of purified total RNA (Quant-iT RNA Assay kit, Molecular Probes, Eugene, Oreg.), equivalent amounts of this RNA were apportioned to generate first-strand cDNAs for each treatment sample, using random primers, (Affinity Script, Stratagene, La Jolla, Calif.). Oligonucleotide myocilin primers, designed based on the cynomolgus MYOC gene, and fluorescent Taqman probe (Applied Biosystems, Foster City, Calif.) were used for PCR amplification. Equal amounts of total RNA-equivalent mass (approximate range […]) reactant cDNA were added to the PCR Master Mix (Stratagene) and myocilin primers/Taqman probe. Amplification was performed in a thermocycler (Mx3005P, Stratagene), with an initial denaturation step at 95° C. for 10 min, followed by 40 cycles of 95° C. for 15 sec and 60° C. for 1 min for extension. Every run included standard controls (i.e., either without reverse transcriptase or lacking template). Relative quantities of myocilin mRNA abundance were determined using differences in threshold cycles (“Ct”) between vehicle control and drug treatments. Each sample was analyzed in triplicate wells, and the corresponding values averaged for further quantitative analysis. Myocilin mRNA abundance, expressed in proportion to vehicle control-treated samples, was calculated using the Mx3005P software.
Data underwent Box-Cox transformations for one- or two-way analysis of variance (ANOVA), followed by the Tukey-Kramer test, using JMP software (SAS, Cary, N.C.). The specific transformations used for analyses are mentioned in the figure legends. For each set of triplicate samples from the individual monkey TM cell strains tested, Western blot densitometry values for myocilin protein detected in CM (as geometric means), and relative abundance of myocilin mRNA (as geometric means), were plotted as a function of drug concentrations. P-values less than 0.05 were considered statistically significant. […]

[2] = test system: rabbit eyes; experiment: Ophthalmic observations (slit lamp, McDonald Shadduck) in the rabbit IOP study; assay type: in vivo, New Zealand White rabbits; parameters: key to Cornea Score: 1: Some loss of transparency. Only the epithelium and/or the anterior half of the stoma are involved. The underlying structures are clearly visible although some cloudiness may be readily apparent; key to Conjunctival congestion Score: A flushed, reddish color predominantly confined to the palpebral conjunctiva with some perilimbal injection but primarily confined to the lower and upper parts of the eye from the 4:00 to 7:00 and 11:00 to 1:00 positions; conditions: for Conjunctival congestion Score: individual rabbit; for Ophthalmic Observation (Slit-Lamp): individual rabbits; for Ocular finding associated with unilateral topical instillation: four times daily up to 31 days, BOL-303242-X 0.05, 0.25 or 0.5 mg/dose, dexamethasone 0.05 mg/dose
Protocol: On Days 1-31, animals received daily topical doses of the appropriate test article into the right eye. Animals were dosed four times per day, with doses administered 2 hours apart. Doses were administered using a calibrated 50-μL pipette. The eyelids were held close for 10 seconds immediately following dosing. The time of each dose administration was recorded.
Ophthalmic examinations (slit lamp) were performed prior to the first dosing on Days 5, 12, 22, 26, and 33. Ocular findings were scored according to the McDonald Shadduck system and recorded using a standardized data collection sheet.

[3] = test system: IL-1β-induced PGE2 release in human conjunctival fibroblasts (HConF); experiment: IL-1β-induced PGE2 release in human conjunctival fibroblasts (ELISA); assay type: cell-based; conditions: 3-1000 nM, 18 hours
Protocol: Human conjunctival fibroblasts (HConF) were seeded in 24-well plates in complete Fibroblast Medium (FM) which contained 2% fetal bovine serum (FBS) and Fibroblast Growth Supplement (FGS). After reaching confluence (about 95%), cells were conditioned in basic FM that had been supplemented with 0.5% charcoal-dextran treated fetal bovine serum (CD-FBS) and without Fibroblast Growth Supplement (FGS) for 24 hours. […] Plates were performed in triplicate. Culture media were evaluated for PGE2 release by ELISA.

[4] = test system: COX-2; experiment: COX-2 protein in IL-1β-induced human conjunctival fibroblasts (Western blot); assay type: cell-based; conditions: 2 h pretreatment, then 24 h with IL-1β
Protocol: Cells were washed with ice-cold PBS and lysed in cell lysis buffer (62.5 mM Tris-HCl, pH 6.8, 2% sodium dodecyl sulfate (SDS), 10% glycerol). Cells were sonicated, and centrifuged at 12.000 rpm and protein concentration was determined using the Micro BCA protein assay kit. Proteins in aliquots of cell lysate (˜20 μg protein) were separated by SDS-polyacrylamide electrophoresis (SDS-PAGE) on 10% gels and transferred to PVDF membranes. Membranes were blocked with 5% BSA and exposed to mouse anti-COX-2 antibody (Caymen). The blots were washed, and exposed to horseradish peroxidase-conjugated anti-mouse secondary antibody. After washing, blots were incubated in ECL (enhanced chemiluminescence) solutions and chemiluminescent bands were visualized using the FluorChem imaging system (AlphaInnotech, San Leandro, Calif.). Blots were then stripped and re-probed for glyceraldehyde 3-phosphate dehydrogenase (GAPDH) (Zymed) antibody as loading controls. The experiment was repeated 3 times. Analysis of Western blot band density for COX-2 and GAPDH in captured digital images was done using the Alpha-Innotech Chemi-Imager software (Alpha Innotech; San Leandro, Calif.). Levels of COX-2 protein were normalized to GAPDH.

[5] = 1 mg/g BOL-303242-X 4 x daily, treated right eye, Day 22
[6] = 5 mg/g BOL-303242-X 4 x daily, treated right eye, Day 5
[7] = 5 mg/g BOL-303242-X 4 x daily, treated right eye, Day 22
[8] = 5 mg/g BOL-303242-X 4 x daily, treated right eye, Day 22, 26
[9] = 5 mg/g BOL-303242-X 4 x daily, treated right eye, Day 26
[10] = 10 mg/g BOL-303242-X 4 x daily, treated right eye, Day 5, 12
[11] = 10 mg/g BOL-303242-X 4 x daily, treated right eye, Day 12
[12] = 10 mg/g BOL-303242-X 4 x daily, treated right eye, Day 26
[13] = 0.1% Dexamethasone 4 x daily, treated right eye, Day 5
[14] = 0.1% Dexamethasone 4 x daily, treated right eye, Day 22

For `Cc1ccc2c(NCC(O)(CC(C)(C)c3cc(F)cc4c3OCC4)C(F)(F)F)cccc2n1` (stereo not drawn) [BOL-303242-X], the “Maximal efficacy for myocilin mRNA expression, relative to DEX” value ([1]; 300 nM, monkey TM cells) was “approximately 67%”, the EC50 [1] was 20.8 ± 2.74 nM and the “Myocilin mRNA abundance compared with DEX” value ([1]; all doses, monkey TM cells) was “significantly lower mRNA abundance values”. For the same molecule, the “Conjunctival congestion Score” value [2, 5] was 1, the “Ophthalmic Observation (Slit-Lamp)” value [2, 5] was “Conjunctival congestion” and the Slit-lamp ophthalmic finding ([2]; 1 mg/g suspension, dosed right eye (Group D, No. 3043)) was “subconjunctival hemorrhage”. For the same molecule, the “Conjunctival congestion Score” value [2, 6] was 1, the “Conjunctival congestion Score” value [2, 7] was 1 and the “Conjunctival congestion Score” value [2, 8] was 1. For the same molecule, the “Conjunctival congestion Score” value [2, 9] was 1, the “Ophthalmic Observation (Slit-Lamp)” value [2, 6] was “Conjunctival congestion” and the “Ophthalmic Observation (Slit-Lamp)” value [2, 7] was “Conjunctival congestion”. For the same molecule, the “Ophthalmic Observation (Slit-Lamp)” value [2, 8] was “Conjunctival congestion”, the “Ophthalmic Observation (Slit-Lamp)” value [2, 9] was “Conjunctival congestion” and the “Conjunctival congestion Score” value [2, 10] was 1. The “Conjunctival congestion Score” value [2, 11] was 1, the “Conjunctival congestion Score” value [2, 12] was 1 and the “Ophthalmic Observation (Slit-Lamp)” value ([2]; 10 mg/g BOL-303242-X 4 x daily, treated right eye, Day 5) was “Surface area of cornea involvement”. The “Ophthalmic Observation (Slit-Lamp)” value [2, 10] was “Conjunctival Congestion”, the “Ophthalmic Observation (Slit-Lamp)” value [2, 11] was “Conjunctival Congestion” and the “Ophthalmic Observation (Slit-Lamp)” value [2, 12] was “Conjunctival Congestion”. For the same molecule, the “Surface area of cornea involvement Score” value ([2]; 10 mg/g BOL-303242-X 4 x daily, treated right eye, rabbit 3083, Day 5) was 1 (1-25% area of stromal cloudiness.), the “Cornea Score” value ([2]; 10 mg/g BOL-303242-X 4 x daily, treated right eye, rabbit 3083, Day 5, pinpoint corneal scar) was 1^(2) and the Slit-lamp ophthalmic finding ([2]; 10 mg/g suspension, dosed right eye (Group B, No. 3083)) was “pinpoint corneal scar”. The “Ocular finding associated with unilateral topical instillation” value [2] was “sporadic mild conjunctival congestion”, the “Production of PGE2 by IL-1β-induced HConF” value [3] was “successfully inhibits” and the “Production of COX-2 by IL-1β-induced HConF” value [4] was “successfully inhibits”.
In the case of `C[C@@H]1C[C@H]2[C@@H]3CCC4=CC(=O)C=C[C@]4(C)[C@@]3(F)[C@@H](O)C[C@]2(C)[C@@]1(O)C(=O)CO` [dexamethasone, reference compound], the EC50 [1] is reported as 14.7 ± 1.27 nM, the “Conjunctival congestion Score” value [2, 13] is reported as 1 and the “Conjunctival congestion Score” value [2, 14] is reported as 1. The “Ophthalmic Observation (Slit-Lamp)” value [2, 13] was “Conjunctival Congestion”, the “Ophthalmic Observation (Slit-Lamp)” value [2, 14] was “Conjunctival Congestion” and the “Ocular finding associated with unilateral topical instillation” value [2] was “sporadic mild conjunctival congestion”.

Reference: patent US20120065228A1, “COMPOSITIONS AND METHODS FOR TREATING, CONTROLLING, REDUCING, OR AMELIORATING OCULAR INFLAMMATORY WITH LOWER RISK OF INCREASED INTRAOCULAR PRESSURE” (priority 2007, published 2012)
